We go through 26 compounds from US10294207B2, “Pyrazole derivatives as TNIK, IKKϵ and TBK1 inhibitor and pharmaceutical composition comprising same” (GREEN CROSS CORPORATION, priority 2015, dated 2019).

What all share (type): biochemical
Holding throughout (settings): luminometer

For assay [1], the target named is T1, TNIK (Homo sapiens, UniProt Q9UKE5).
T1 construct: purchased Promega V4158
Nature of the assay: TNIK inhibition, ADP-Glo Kinase Assay. The protocol:
Inhibition activities on TNIK, IKKε and TBK1 were evaluated using the compounds of Examples 1 to 254.
The inhibition activities on TNIK, IKKε and TBK1 were measured by a luminometer, TNIK/IKKε/TBK1 Kinase Enzyme System (Promega, Ca# V4158; Invitrogen, PR8031B, Promega, Ca# V3991) and ADP-Glo Kinase Assay using ADP-Glo™ Kinase Analysis Kit (Promega, Ca# V9101) and a kinase reaction buffer [40 mM Tris(pH 7.5), 20 mM MgCl2, 0.1 mg/mL BSA] in accordance with the manufacturer's protocol.

Assay [2] addresses T2, TBK1 (Homo sapiens, UniProt Q9UHD2).
T2 construct: purchased Promega V3991
T2 sequence (Q9UHD2 1-729): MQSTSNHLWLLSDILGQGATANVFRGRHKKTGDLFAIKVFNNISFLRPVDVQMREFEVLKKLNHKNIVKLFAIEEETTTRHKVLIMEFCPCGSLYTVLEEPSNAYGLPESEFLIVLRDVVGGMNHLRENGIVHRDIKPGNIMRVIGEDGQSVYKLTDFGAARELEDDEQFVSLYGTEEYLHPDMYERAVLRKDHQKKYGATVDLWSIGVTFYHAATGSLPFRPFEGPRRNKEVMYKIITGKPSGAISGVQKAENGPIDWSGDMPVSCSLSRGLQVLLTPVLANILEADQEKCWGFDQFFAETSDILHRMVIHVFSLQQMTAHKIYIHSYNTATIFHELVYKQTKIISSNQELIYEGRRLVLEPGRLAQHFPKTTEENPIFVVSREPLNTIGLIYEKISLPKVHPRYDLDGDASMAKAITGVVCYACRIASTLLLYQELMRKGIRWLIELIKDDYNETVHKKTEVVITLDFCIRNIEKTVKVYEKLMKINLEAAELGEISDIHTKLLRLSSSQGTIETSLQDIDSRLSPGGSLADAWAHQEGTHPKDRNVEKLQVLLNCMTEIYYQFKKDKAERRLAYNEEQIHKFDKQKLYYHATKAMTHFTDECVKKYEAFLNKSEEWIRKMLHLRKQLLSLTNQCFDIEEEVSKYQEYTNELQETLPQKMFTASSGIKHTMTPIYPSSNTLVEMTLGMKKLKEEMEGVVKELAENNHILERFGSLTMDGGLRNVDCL
Nature of the assay: TBK1 inhibition, ADP-Glo Kinase Assay. Put shortly:
(§1)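 Each recombinant kinase enzyme system was run per the manufacturer's protocol in 40 mM Tris pH 7.5, 20 mM MgCl2 and 0.1 mg/mL BSA. Kinase activity was detected as ADP formation by ADP-Glo luminescence.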

For assay [3], the target named is T3, IKKε (Homo sapiens, UniProt Q14164).
T3 construct: purchased Invitrogen PR8031B
T3 sequence (Q14164 1-716): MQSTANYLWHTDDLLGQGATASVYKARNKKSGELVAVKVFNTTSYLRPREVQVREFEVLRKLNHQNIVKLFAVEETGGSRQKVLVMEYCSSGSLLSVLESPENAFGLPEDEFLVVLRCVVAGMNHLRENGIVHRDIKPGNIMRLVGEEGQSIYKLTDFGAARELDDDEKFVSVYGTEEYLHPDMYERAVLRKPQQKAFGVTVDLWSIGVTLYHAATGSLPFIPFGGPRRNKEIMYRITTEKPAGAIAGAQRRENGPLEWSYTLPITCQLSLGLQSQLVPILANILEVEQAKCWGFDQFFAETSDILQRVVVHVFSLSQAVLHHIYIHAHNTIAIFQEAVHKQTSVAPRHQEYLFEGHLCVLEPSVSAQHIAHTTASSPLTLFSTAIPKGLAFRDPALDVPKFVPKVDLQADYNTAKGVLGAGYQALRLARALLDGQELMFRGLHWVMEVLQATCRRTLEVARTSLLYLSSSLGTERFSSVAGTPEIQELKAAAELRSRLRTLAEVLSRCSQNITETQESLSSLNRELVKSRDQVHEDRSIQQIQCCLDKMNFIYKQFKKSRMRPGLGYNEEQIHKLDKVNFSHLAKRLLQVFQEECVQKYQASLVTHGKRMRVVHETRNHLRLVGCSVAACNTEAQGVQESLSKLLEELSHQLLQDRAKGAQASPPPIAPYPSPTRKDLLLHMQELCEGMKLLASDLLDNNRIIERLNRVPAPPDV
The experiment in a line: IKKε inhibition, ADP-Glo Kinase Assay. The method in brief:
as §1

Bounds are passed on as bounds.

T1 sequence (Q9UKE5 1-367 limits assumed): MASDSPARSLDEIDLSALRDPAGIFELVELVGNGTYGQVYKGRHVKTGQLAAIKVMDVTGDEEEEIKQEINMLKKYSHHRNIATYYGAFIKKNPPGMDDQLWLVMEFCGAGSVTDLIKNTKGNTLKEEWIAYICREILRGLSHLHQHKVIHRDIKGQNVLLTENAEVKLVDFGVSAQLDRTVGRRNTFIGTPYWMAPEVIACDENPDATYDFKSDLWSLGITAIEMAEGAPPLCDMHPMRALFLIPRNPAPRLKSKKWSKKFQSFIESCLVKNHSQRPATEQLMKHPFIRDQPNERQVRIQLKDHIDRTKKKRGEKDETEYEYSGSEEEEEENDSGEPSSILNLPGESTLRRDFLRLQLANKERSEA

In the case of `CCNC(=O)c1cc2[nH]nc(-c3ccc(N4CCOCC4)cc3)c2s1` [Example 241, N-ethyl-3-(4-morpholinophenyl)-1H-thieno[3,2-c]pyrazole-5-carboxamide], the values for the half-inhibitory concentration (IC50) in assay [1] and in assay [2] were 1.09 µM and > 10 µM, respectively. With `Cc1cnc(-c2cc3[nH]nc(NC(=O)c4ccc(N5CCOCC5)cc4)c3s2)o1` [Example 218, N-(5-(5-methyloxazol-2-yl)-1H-thieno[3,2-c]pyrazol-3-yl)-4-morpholinobenzamide], the IC50 in assay [1] is 0.048 µM. As for `COC(=O)c1cc2[nH]nc(-c3ccc(OC)cc3)c2s1` [Example 231, methyl 3-(4-methoxyphenyl)-1H-thieno[3,2-c]pyrazole-5-carboxylate], the IC50 in assay [1] was 0.54 µM; in assay [2] it was > 10 µM. Compound `Cc1cnc(-c2cc3[nH]nc(-c4ccc(F)cc4)c3s2)o1` [Example 246, 2-(3-(4-fluorophenyl)-1H-thieno[3,2-c]pyrazol-5-yl)-5-methyloxazole] yielded an IC50 in assay [1] of 0.5 µM. With `Cc1cnc(-c2cc3[nH]nc(NC(=O)c4ccc(N(C)C)cc4)c3s2)s1` [Example 251, 4-(dimethylamino)-N-(5-(5-methylthiazol-2-yl)-1H-thieno[3,2-c]pyrazol-3-yl)benzamide], the IC50 in assay [1] amounted to 0.25 µM; in assay [2], 1.4 µM.

In turn, `COC(=O)c1cc2[nH]nc(-c3ccc(NC(C)=O)cc3)c2s1` [Example 245, methyl 3-(4-acetamidophenyl)-1H-thieno[3,2-c]pyrazole-5-carboxylate] had an IC50 in assay [1] of 0.16 µM.

Consider `Cc1cnc(-c2cc3[nH]nc(-c4ccc(F)cc4)c3s2)s1` [Example 247, 3-(4-fluorophenyl)-5-(5-methylthiazol-2-yl)-1H-thieno[3,2-c]pyrazole], for which the IC50 in assay [1] was > 20 µM. In assay [1], `COC(=O)c1cc2[nH]nc(-c3ccc(OCCN4CCOCC4)cc3)c2s1` [Example 249, methyl 3-(4-(2-morpholinoethoxy)phenyl)-1H-thieno[3,2-c]pyrazole-5-carboxylate] displayed a half-maximal inhibitory concentration (IC50) of 0.47 µM. In the case of `COC(=O)c1cc2[nH]nc(-c3ccc(N(C)C)cc3)c2s1` [Example 234, methyl 3-(4-(dimethylamino)phenyl)-1H-thieno[3,2-c]pyrazole-5-carboxylate], in assay [1], the “TNIK (μM), inhibition activity” value was “insoluble”.

For `CCNC(=O)c1cc2[nH]nc(-c3ccccc3)c2s1` [Example 238, N-ethyl-3-phenyl-1H-thieno[3,2-c]pyrazole-5-carboxamide], in assay [1], half-maximal inhibition (IC50) required 3.47 µM. With `CCNC(=O)c1cc2[nH]nc(-c3ccc(N(C)C)cc3)c2s1` [Example 237, 3-(4-(dimethylamino)phenyl)-N-ethyl-1H-thieno[3,2-c]pyrazole-5-carboxamide], inhibition in assay [1] was half-maximal at 1.79 µM (IC50). `CCc1cnc(-c2cc3[nH]nc(-c4ccc(N5CCOCC5)cc4)c3s2)o1` [Example 244, 4-(4-(5-(5-ethyloxazol-2-yl)-1H-thieno[3,2-c]pyrazol-3-yl)phenyl)morpholine] returned a 50% inhibitory concentration (IC50) in assay [1] of 1.01 µM. Take `O=C(Cc1cccs1)Nc1ccc2[nH]nc(NC(=O)c3ccc(N4CCOCC4)cc3)c2c1` [Example 144, 4-Morpholino-N-(5-(2-(thiophen-2-yl)acetamido)-1H-indazol-3-yl)benzamide]: the IC50 in assay [2] is 0.069 µM; in assay [3], 0.25 µM. As for `Cc1cnc(-c2cc3[nH]nc(-c4ccc(OCCN5CCOCC5)cc4)c3s2)o1` [Example 250, 4-(2-(4-(5-(5-methyloxazol-2-yl)-1H-thieno[3,2-c]pyrazol-3-yl)phenoxy)ethyl)morpholine], in assay [1], half-maximal inhibition (IC50) required 0.11 µM. On to `CCCC(NC(=O)c1ccc2[nH]nc(NC(=O)c3ccc(N4CCN(C)CC4)cc3)c2c1)c1cccs1` (centres unmarked) [Example 59, 3-(4-(4-Methylpiperazin-1-yl)benzamido)-N-(1-(thiophen-2-yl)butyl)-1H-indazole-5-carboxamide], for which the IC50 in assay [2] stood at 0.032 µM; in assay [3], 0.11 µM. The like results for `O=C(NCc1cccs1)c1ccc2[nH]nc(NC(=O)c3ccc(OCCN4CCOCC4)cc3)c2c1` [Example 201, 3-(4-(2-Morpholinoethoxy)benzamido)-N-(thiophen-2-ylmethyl)-1H-indazole-5-carboxamide] were, in that order, 0.003 µM and 0.038 µM. Taken in the same sequence, the figures for `CN1CCN(c2ccc(C(=O)Nc3n[nH]c4ccc(C(=O)NCc5ccccc5F)cc34)cc2)CC1` [Example 196, N-(2-Fluorobenzyl)-3-(4-(4-methylpiperazin-1-yl)benzamido)-1H-indazole-5-carboxamide] were 0.007 µM and 0.032 µM. With `C[C@H]1CN(c2ccc(C(=O)Nc3n[nH]c4ccc(C(=O)NC(C)(C)c5cccs5)cc34)cc2)CCN1` [Example 137, (S)-3-(4-(3-Methylpiperazin-1-yl)benzamido)-N-(2-(thiophen-2-yl)propan-2-yl)-1H-indazole-5-carboxamide], the values for the IC50 in assay [2] and in assay [3] were 0.0049 µM and 0.032 µM, respectively. Turning to `Cc1ccc(CNC(=O)c2ccc3[nH]nc(NC(=O)c4ccc(N5CCN(C)CC5)cc4)c3c2)s1` [Example 61, 3-(4-(4-Methylpiperazin-1-yl)benzamido)-N-((5-methylthiophen-2-yl)methyl)-1H-indazole-5-carboxamide], the IC50 in assay [2] amounted to 0.056 µM; in assay [3], 0.23 µM. Regarding `O=C(NCc1cccs1)c1ccc2[nH]nc(NC(=O)c3ccc(N4CCOCC4)cc3)c2c1` [Example 148, 3-(4-Morpholinobenzamido)-N-(thiophen-2-ylmethyl)-1H-indazole-5-carboxamide], the IC50 in assay [2] came to 0.004 µM; in assay [3], 0.031 µM. For `O=C(c1cc2[nH]nc(-c3ccc(N4CCOCC4)cc3)c2s1)N1CCCC1` [Example 248, (3-(4-morpholinophenyl)-1H-thieno[3,2-c]pyrazol-5-yl)(pyrrolidin-1-yl)methanone], in assay [1], the IC50 turned out to be 8.09 µM. As to `CCCC(NC(=O)c1ccc2[nH]nc(NC(=O)c3ccc(N4CCOCC4)cc3)c2c1)c1cccs1` (centres unmarked) [Example 58, 3-(4-Morpholinobenzamido)-N-(1-(thiophen-2-yl)butyl)-1H-indazole-5-carboxamide], the IC50 worked out at 0.039 µM in assay [2] and 0.13 µM in assay [3]. Consider `CN1CCN(c2ccc(C(=O)Nc3n[nH]c4ccc(C(=O)C(C(=O)O)c5cccs5)cc34)cc2)CC1` (centres unmarked) [Example 75, 3-(3-(4-(4-Methylpiperazin-1-yl)benzamido)-1H-indazol-5-yl)-3-oxo-2-(thiophen-2-yl)propanoic Acid], for which the IC50 in assay [2] worked out at 0.18 µM; in assay [3] it was 0.67 µM. The like results for `O=C(NCC1CC1)c1ccc2[nH]nc(NC(=O)c3ccc(F)cc3)c2c1` [Example 23, N-(Cyclopropylmethyl)-3-(4-fluorobenzamido)-1H-indazole-5-carboxamide] were, in that order, 1.41 µM and 5.58 µM. With `CN1CCN(c2ccc(C(=O)Nc3n[nH]c4ccc(C(=O)NCC5CCCC5)cc34)cc2)CC1` [Example 90, N-(Cyclopentylmethyl)-3-(4-(4-methylpiperazin-1-yl)benzamido)-1H-indazole-5-carboxamide 2,2,2-trifluoroacetate], the IC50 in assay [2] is 0.013 µM; in assay [3], 0.21 µM.

In the case of `O=C(NCc1cccs1)c1ccc2[nH]nc(NC(=O)c3ccc(NCCN4CCCC4)cc3)c2c1` [Example 152, 3-(4-((2-(Pyrrolidin-1-yl)ethyl)amino)benzamido)-N-(thiophen-2-ylmethyl)-1H-indazole-5-carboxamide], the IC50 in assay [2] stood at 0.004 µM; in assay [3], 0.092 µM.
